Laboratory results: patent publication US8557830B2, “RAF kinase modulators and methods of use” (Amgen Inc., priority 2007, dated 2013)
Like-named read-outs stand apart in the source and are kept apart here.

Experiments:
[1] = target: recombinant HuBraf V600E (Homo sapiens, UniProt P15056, V600E); assay: B-raf Homogenous Time Resolved Fluorescent (HTRF) kinase assay; format: biochemical; settings: human mutant B-raf V600E, substrate MEK1, 10 uM ATP, read-out: HTRF Enzyme assay Data IC50
Protocol: B-raf-Homogenous Time Resolved Fluorescent (HTRF) Kinase Assay
The final concentration of the kinase reaction buffer is 50 mM Tris-HCL pH 7.5, 10 mM MgCl2, 0.5% glucose, 0.5 mM DTT, 0.01% BSA. […] The detection reaction proceeds for one hour and is read on a RubyStar (BMG Labtech) counter. IC50s for the test compounds are generated using Excel-XLfit software.

[2] = target: T1, V600E mutant B-raf (Homo sapiens, UniProt P15056, V600E); assay: B-raf cell-based assay (ratio of phospho-ERK1/2 to total ERK1/2 in A375 cells); settings: A375 human melanoma cells, P-ERK/total ERK
T1 construct: A375 cells, a human melanoma cell line having the V600E mutant B-raf is used in this assay; endogenous in cells; host or cells: A375 human melanoma cells
T1 sequence (P15056 whole entry V600E): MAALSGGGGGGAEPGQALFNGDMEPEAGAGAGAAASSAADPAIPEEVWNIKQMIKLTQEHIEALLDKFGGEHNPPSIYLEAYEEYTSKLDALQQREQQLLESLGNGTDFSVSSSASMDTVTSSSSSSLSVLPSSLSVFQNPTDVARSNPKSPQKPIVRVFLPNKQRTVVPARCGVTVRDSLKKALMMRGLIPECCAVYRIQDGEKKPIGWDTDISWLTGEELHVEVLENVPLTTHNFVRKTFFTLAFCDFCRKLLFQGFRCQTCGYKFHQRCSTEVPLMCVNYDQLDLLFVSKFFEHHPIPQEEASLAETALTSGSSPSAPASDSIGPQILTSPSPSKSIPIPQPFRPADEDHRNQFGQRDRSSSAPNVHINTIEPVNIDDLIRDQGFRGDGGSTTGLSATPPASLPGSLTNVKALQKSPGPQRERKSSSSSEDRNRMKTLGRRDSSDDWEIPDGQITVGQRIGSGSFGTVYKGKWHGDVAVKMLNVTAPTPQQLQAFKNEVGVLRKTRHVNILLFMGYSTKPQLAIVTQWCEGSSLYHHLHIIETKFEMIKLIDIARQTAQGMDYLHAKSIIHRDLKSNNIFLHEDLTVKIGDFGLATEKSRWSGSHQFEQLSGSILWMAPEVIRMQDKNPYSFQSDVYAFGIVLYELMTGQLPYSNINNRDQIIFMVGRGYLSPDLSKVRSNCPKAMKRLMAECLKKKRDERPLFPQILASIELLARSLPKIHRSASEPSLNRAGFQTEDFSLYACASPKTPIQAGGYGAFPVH
Protocol: A cell-based assay was optimized to assay the ability of compounds to inhibit B-raf activity in a whole cell context. […] The cell-based assay quantifies the ratio of phospho-ERK1/2 to total ERK1/2 and can thereby assay the cellular inhibition of B-raf kinase activity. A375 cells are plated into 96 well plates and grown to confluence. The cells are then changed into starve media (DMEM/0.1% BSA) for 60 minutes. Compounds in DMSO dose curves are then diluted in starve media and added to cells. […] After a 60 minute incubation the cells are fixed for 20 minutes at RT in 4% formaldehyde with 0.1% Triton X-100, protease and phosphatase inhibitors in PBS. The cells are washed four times in PBS then blocked for 60 minutes using a one to one mix of Odyssey blocking buffer (Li-Cor Biosciences, Inc) and PBS. Primary antibodies (rabbit anti-phospho p42/p44 MAPK (P-ERK1/2) from Cell Signaling Technology and mouse anti-ERK2 from Santa Cruz Biotechnology) are diluted in blocking buffer, added to the cells and incubated overnight at 4° C. The cells are then washed four times in PBS/0.1% Tween-20. Secondary antibodies (anti-mouse IRDye 800CW from Rockland, Inc and anti-rabbit AlexaFlour680 from Molecular Probes) are diluted in blocking buffer/0.5% Tween and incubated on cells for 60 minutes. After 4 washes in PBS/0.1% Tween-20 the microplate is scanned on an Odyssey Infrared Imager (Li-Cor Bioscience) which can read the signal given by the two secondary antibodies on their respective channels. The ratio of P-ERK/total ERK is determined and IC50s generated using Excel-XLfit software.

Sequence of recombinant HuBraf V600E (P15056 whole entry V600E): as above

| SMILES | IC50 ([1]; Table I) [nM] | IC50 ([2]; Table I) [nM] | IC50 ([1]; Table II) [nM] | IC50 ([2]; Table II) [nM] |
| --- | --- | --- | --- | --- |
| COc1ccc(Nc2nccc3c(Nc4ncccc4-c4ncnc5[nH]ncc45)c(C)ccc23)cc1C(F)(F)F [Example 66, N5-(3-(1H-pyrazolo[3,4-d]pyrimidin-4-yl)pyridin-2-yl)-N1-(4-methoxy-3-(trifluoromethyl)phenyl)-6-methylisoquinoline-1,5-diamine] | 25 | 28 |  |  |
| Cc1ccc2c(Nc3ccc(Cl)cc3)nccc2c1Nc1ncccc1-c1ncnc2[nH]ncc12 [Example 67, N5-(3-(1H-pyrazolo[3,4-d]pyrimidin-4-yl)pyridin-2-yl)-N1-(4-chlorophenyl)-6-methylisoquinoline-1,5-diamine] | 5 | 3 |  |  |
| Cc1ccc2c(Nc3ccc(Cl)cc3)nccc2c1Oc1ncccc1-c1ncnc2[nH]cnc12 [Example 68, N-(4-chlorophenyl)-6-methyl-5-((3-(9H-purin-6-yl)-2-pyridinyl)oxy)-1-isoquinolinamine] | 26 | 1000 |  |  |
| Cc1ccc2c(Nc3ccc(Cl)cc3)nccc2c1Nc1ncncc1-c1ncnc2[nH]cnc12 [Example 69, N-1-(4-chlorophenyl)-6-methyl-N-5-(5-(9H-purin-6-yl)-4-pyrimidinyl)-1,5-isoquinolinediamine] |  |  | 2 | 4 |
| Cc1ccc2c(Nc3ccc(C#N)cc3)ncnc2c1Nc1ncccc1-c1ncnc2[nH]ncc12 [Example 70, 4-((7-methyl-8-((3-(1H-pyrazolo[3,4-d]pyrimidin-4-yl)-2-pyridinyl)amino)-4-quinazolinyl)amino)benzonitrile] |  |  | 5 | 86 |
| Cc1ccc2c(Nc3ccc(C#N)cc3)nccc2c1Nc1ncccc1-c1ncnc2[nH]ncc12 [Example 71, 4-((6-methyl-5-((3-(1H-pyrazolo[3,4-d]pyrimidin-4-yl)-2-pyridinyl)amino)-1-isoquinolinyl)amino)benzonitrile] |  |  | 4 | 12 |
| Cc1ccc2c(Nc3ccc4c(c3)OC(F)(F)O4)nccc2c1Nc1ncccc1-c1ncnc2[nH]ncc12 [Example 72, N-1-(2,2-difluoro-1,3-benzodioxol-5-yl)-6-methyl-N-5-(3-(1H-pyrazolo[3,4-d]pyrimidin-4-yl)-2-pyridinyl)-1,5-isoquinolinediamine] |  |  | 20 | 18 |
| Cc1ccc2c(Nc3cccc(C(F)(F)F)c3)ncnc2c1Nc1ncccc1-c1ncnc2[nH]cnc12 [Example 73, 7-methyl-N-8-(3-(9H-purin-6-yl)-2-pyridinyl)-N-4-(3-(trifluoromethyl)phenyl)-4,8-quinazolinediamine] |  |  | 26 | 33 |
| Cc1ccc2c(Nc3ccc4c(c3)OC(F)(F)O4)ncnc2c1Nc1ncccc1-c1ncnc2[nH]cnc12 [Example 74, N-4-(2,2-difluoro-1,3-benzodioxol-5-yl)-7-methyl-N-8-(3-(9H-purin-6-yl)-2-pyridinyl)-4,8-quinazolinediamine] |  |  | 8 | 4 |
| C#Cc1cccc(Nc2ncnc3c(Nc4ncccc4-c4ncnc5[nH]cnc45)c(C)ccc23)c1 [Example 75, N-4-(3-ethynylphenyl)-7-methyl-N-8-(3-(9H-purin-6-yl)-2-pyridinyl)-4,8-quinazolinediamine] |  |  | 3 | 28 |
| Cc1ccc2c(Nc3ccc(OC(F)F)cc3)ncnc2c1Nc1ncccc1-c1ncnc2[nH]cnc12 [Example 76, N-4-(4-(difluoromethoxy)phenyl)-7-methyl-N-8-(3-(9H-purin-6-yl)-2-pyridinyl)-4,8-quinazolinediamine] |  |  | 9 | 5 |
| Cc1ccc2c(Nc3ccc(Cl)cc3)ncnc2c1Nc1ncccc1-c1ncnc2[nH]cnc12 [Example 77, N-4-(4-chlorophenyl)-7-methyl-N-8-(3-(9H-purin-6-yl)-2-pyridinyl)-4,8-quinazolinediamine] |  |  | 5 | 12 |
| Cc1ccc2c(N[C@H](C)c3ccc(Cl)cc3)nccc2c1Nc1ncccc1-c1ncnc2[nH]cnc12 [Example 78, N-1-((1R)-1-(4-chlorophenyl)ethyl)-6-methyl-N-5-(3-(9H-purin-6-yl)-2-pyridinyl)-1,5-isoquinolinediamine] |  |  | 33 | 33 |
